# In patent publication US8071383B2, “D-amino acid selection for soybean” (BASF Plant Science GmbH, priority 2006, dated 2011):
# Experiments:
# Format in all cases: cell-based, Glycine max
# [1] = tested on: non-Agrobacterium infected soybean axillary meristem explants; assay: Killing curve for D-serine toxicity on non-inoculated seedling axillary meristem explants; details: 60 mM D-serine in SIM, 4 weeks
# Protocol: Killing curves for D-serine toxicity on non-Agrobacterium infected soybean tissues were performed on axillary meristem explants. Thirty explants were prepared as described above in example 1 and cultured on SIM containing either 0 mM, 3 μM, 30 μM, 300 μM, 3 mM, 30 mM, or 60 mM D-serine for a total of 4 weeks. After this time, the percent of explants with new shoot primordia, i.e. appearance of multiple shoots, were counted. In this experiment, a reduction in regeneration occurred between 3 and 30 mM and only 30% regeneration on explants exposed to 60 mM D-serine was seen (FIG. 1).
# [2] = tested on: soybean axillary meristem explants, Dairyland cultivar 98043; assay: Kill curve with D-serine on inoculated axillary meristem explants (shoot induction and elongation)
# Protocol: In order to establish an effective level of selection during shoot induction and elongation a broad range of D-Serine concentrations was initially explored. Soybean axillary meristem explants were prepared from 7 day-old-seedlings from the Dairyland cultivar 98043, as described above in Examples 1 and 3.
# Agrobacterium rhizogenes strain SHA017 with the Super Vir pSB1 plasmid and containing the binary plasmids pRET017 or pREW008 were prepared as described in example 2. pRET017 contains nosP-c-dsdA/na-nosT and pPcUBI-gusINT-nosT (Example 9). pREW008 contains nosP-bar-nosT and pPcUBI-gusINT-nosT and was used as a control vector (Example 9).
# Explants were handled as described above in example 4. After one week on shoot induction medium (SIM) medium with no selection, explants were transferred to SIM medium containing various concentrations of D-serine ranging from 0 to 15 to 30 to 45 mM. All regenerating explants (shoot pads) were transferred to shoot elongation media (SEM) containing 3 mM D-serine after three and six weeks of incubation. Elongating shoots were transferred to rooting medium (RM) medium and screened by GUS expression and Taqman analysis.
# [3] = tested on: soybean primary node explants inoculated with REW008; assay: D-alanine and D-alanine/D-serine killing curves using primary node explants; details: Experiment 2, 0 mM D-alanine + 7.5 mM D-serine
# Protocol: Kill curves for D-alanine selection with and without 7.5 mM D-serine were conducted for future experiments using dao1 as a selectable marker gene. The combination of using D-alanine and D-serine was also performed for the dao1 gene which can metabolize both D-alanine and D-serine. The binary plasmids RET019 (Pactin-dao1, Pubi-gus) and REW008 (Pnos-bar, Pubi-gus) were used as a positive and a negative control, respectively, and the T-DNA mobilized into soybean using Agrobacterium rhizogenes strain SHA017pSB1.
# Explants were inoculated with Agrobacterium, co-cultivated for 5 days, then moved onto shoot induction medium with or without selection for one week. After that time, explants were transferred onto new SIM with selection.
# In experiment 1, D-alanine was added to the SIM medium at the following concentrations: 0, 3, 7.5, 10, 20, 30, and 50 mM.
# In experiment 2, D-alanine was added in the same concentrations with 7.5 mM D-serine.
# The experimental design was as follows: T(treatment)1: 7 explants inoculated with REW008 with 1 week recovery; T2: 7 explants inoculated with REW008 with no recovery; The results of the experiment are shown in Table 2b. […] This drop was not seen on explants with recovery until 20 mM D-alanine. When in combination with D-serine, the explants do have reduced regeneration at lower concentrations, between 7.5 and 10 mM.
compound,measurement,setting,value
N[C@H](CO)C(=O)O [D-serine],percent of explants with new shoot primordia (regeneration),[1],30%
same,shoot elongation,"[2]; 3 mM D-Ser in SEM, explants coming from 30 or 45 mM D-Ser during shoot induction",no shoot elongation
same,Percent of explants surviving after three weeks in shoot elongation (SEM) + 3 mM D-serine,"[2]; D-Ser in SIM 0 mM, RET017",82.8%
same,Percent of explants surviving after three weeks in shoot elongation (SEM) + 3 mM D-serine,"[2]; D-Ser in SIM 0 mM, REW008",94.7%
same,Percent of explants surviving after three weeks in shoot elongation (SEM) + 3 mM D-serine,"[2]; D-Ser in SIM 15 mM, RET017",74.1%
same,Percent of explants surviving after three weeks in shoot elongation (SEM) + 3 mM D-serine,"[2]; D-Ser in SIM 15 mM, REW008",72.1%
same,Percent of explants regenerating after 3 weeks in shoot induction (SIM) medium,"[2]; D-Ser in SIM 15 mM, explants inoculated with RET017 (nosP-dsdA)",78.1%
same,Percent of explants regenerating after 3 weeks in shoot induction (SIM) medium,"[2]; D-Ser in SIM 15 mM, explants inoculated with REW008 (control vector)",76.9%
same,Percent of explants surviving after three weeks in shoot elongation (SEM) + 3 mM D-serine,"[2]; D-Ser in SIM 30 mM, RET017",33.6%
same,Percent of explants surviving after three weeks in shoot elongation (SEM) + 3 mM D-serine,"[2]; D-Ser in SIM 30 mM, REW008",34.5%
same,Percent of explants regenerating after 3 weeks in shoot induction (SIM) medium,"[2]; D-Ser in SIM 30 mM, explants inoculated with RET017 (nosP-dsdA)",61.2%
same,Percent of explants regenerating after 3 weeks in shoot induction (SIM) medium,"[2]; D-Ser in SIM 30 mM, explants inoculated with REW008 (control vector)",55.3%
same,Percent of explants surviving after three weeks in shoot elongation (SEM) + 3 mM D-serine,"[2]; D-Ser in SIM 45 mM, RET017",4.9%
same,Percent of explants surviving after three weeks in shoot elongation (SEM) + 3 mM D-serine,"[2]; D-Ser in SIM 45 mM, REW008",2.6%
same,Percent of explants regenerating after 3 weeks in shoot induction (SIM) medium,"[2]; D-Ser in SIM 45 mM, explants inoculated with RET017 (nosP-dsdA)",25.5%
same,Percent of explants regenerating after 3 weeks in shoot induction (SIM) medium,"[2]; D-Ser in SIM 45 mM, explants inoculated with REW008 (control vector)",21.9%
same,shoot elongation,[2]; explants exposed to 15 mM D-Ser during shoot induction,Few shoots elongated
same,D-alanine + 7.5 mM D-serine Kill Curve-regeneration (%) after 3 weeks on SIM,[3]; T1: REW008 with 1 week recovery,100%
same,D-alanine + 7.5 mM D-serine Kill Curve-regeneration (%) after 3 weeks on SIM,[3]; T2: REW008 with no recovery,100%
